Patent publication US12534496B2, “Polymorphic forms of Cyclo (-His-Pro) and methods of use to treat kidney disease” (NovMetaPharma Co., Ltd., priority 2018, dated 2026)
Entries after “also recorded” stand apart in the source; their conditions may differ. Like-named read-outs stand apart in the source and are kept apart here.

Experiments:
Format in all cases: physicochemical
[1] = Solubility of CHP hydrate (Pattern 2) in EtOH/water/MtBE; settings: organic solvent or mixture
[2] = pH solubility assessment in buffers at 37 °C; settings: for μL for Dissolution at 37° C.: 100 mg solid
Description: CHP patterns 1 and 2 were prepared for pH solubility assessment as follows: • 100 mg of CHP pattern 1 and pattern 2 were each weighed out into 4, 5 mL screw top glass vials; • 100 μL of a selected buffer, pre-heated to 37° C., was added to each vial; • Samples were heated to 37° C. in an incubator shaker for ca. 10 minutes after each volume of buffer and checked for sample dissolution.

[3] = Dry stability at 35, 40, 50 and 65 °C (XRPD)
Description: Drying stability was carried out at 35° C., 40° C., 50° C., and 65° C. respectively.

[4] = Variable temperature dynamic vapour sorption (VT-DVS) at 40, 50, 60 °C; settings: for Post-VT-DVS XRPD form: after cycles at 40, 50 and 60 °C
Description: Approximately, 10-20 mg of sample was placed into a mesh vapor sorption balance pan and loaded into a DVS Advantage dynamic vapor sorption balance by Surface Measurement Systems. The sample was subjected to a ramping profile from 40-90% relative humidity (RH) at 10% increments, maintaining the sample at each step until a stable weight had been achieved (dm/dt 0.004%, minimum step length 30 minutes, maximum step length 500 minutes) at 40° C. After completion of the sorption cycle, the sample was dried using the same procedure to 0% RH and then a second sorption cycle back to 40% RH. The weight change during the sorption/desorption cycles were plotted, allowing for the hygroscopic nature of the sample to be determined. The experiment was repeated at 50° C. and finally at 60° C. XRPD analysis was then carried out on any solid retained.

[5] = 1-week stability assessment (40 °C/75% RH, 80 °C, ambient light; XRPD, HPLC purity)
Description: XRPD analysis was carried out on a sample of 5 g of CHP Hydrate. The sample was weighed in a glass vial, and 6 mL of a 90:10 ethanol/water mixture was added to make a slurry. The mixture was then agitated for approximately 24 hours at ambient temperature and then analyzed by XRPD. […] XPRD analysis was carried out to assess any change in the form of the material.

[6] = Drug substance stability study, 40±2 °C/75±5% RH (appearance, assay, impurities, chiral, water content, XRPD); settings: for XRPD: reference standard of Pattern 2
Description: Packaging: Sample at each individual time point was packaged into double Antistatic LDPE bags both secured with cable ties. The sample packed for the same storage condition were stored together within a fiber drum, and closed with metal lid. All packages were prepared in the same fashion and labeled.
Time zero will be the day samples are placed on station. Initial testing results were from the release testing as long as samples are put on station within 30 days of the release test date, otherwise, initial was repeated.
Study Requirements: Total 22.5 g sample (Total 21 g sample if initial test is not needed): • 1.5 g for initial test if needed; • 21 g sample will be divided into 14 parts, 1.5 g for each parts, sample for each part should be weighed into double Antistatic LDPE bags both secured with cable ties. The stability samples for each storage condition are stored together within a fiber drum, closed with metal lid, and then stored at 25±2° C./60+5% RH (9 bags) and 40±2° C./75±5% RH (5 bags), respectively. Sampling Time:
Samples stored not more than 6 months were pulled on schedule date or within 2 business days after the scheduled date. Samples stored more than 6 months were pulled within +2 business days of the scheduled date.
Stability samples stored for one month to one year, and greater than one year were analyzed and completed within 10 and 20 business days after the samples pulled out from stability chamber, respectively. If time zero testing was performed, it was analyzed within 10 business days after study initiation.

solubility ([1]; (EtOH/water = 9/1)/MtBE 3/0 (v/v), 5 °C): 121 mg/mL
solubility ([1]; (EtOH/water = 9/1)/MtBE 3/0 (v/v), 50 °C): > 200 mg/mL
solubility ([1]; (EtOH/water = 9/1)/MtBE 3/1 (v/v), 5 °C): 59 mg/mL
solubility ([1]; (EtOH/water = 9/1)/MtBE 3/1 (v/v), 50 °C): > 200 mg/mL
solubility ([1]; (EtOH/water = 9/1)/MtBE 3/3 (v/v), 5 °C): 30 mg/mL
solubility ([1]; (EtOH/water = 9/1)/MtBE 3/3 (v/v), 50 °C): 101 mg/mL
solubility ([1]; (EtOH/water = 9/1)/MtBE 3/6 (v/v), 5 °C): 6 mg/mL
solubility ([1]; (EtOH/water = 9/1)/MtBE 3/6 (v/v), 50 °C): 24 mg/mL
solubility ([1]; (EtOH/water = 9/1)/MtBE 3/9 (v/v), 5 °C): 6 mg/mL
solubility ([1]; (EtOH/water = 9/1)/MtBE 3/9 (v/v), 50 °C): 17 mg/mL
μL for Dissolution at 37° C. ([2]; buffer pH 1): 300 µL
μL for Dissolution at 37° C. ([2]; buffer pH 4): 300 µL
μL for Dissolution at 37° C. ([2]; buffer pH 6.8): 300 µL
μL for Dissolution at 37° C. ([2]; buffer pH 7.2): 300 µL
solubility at 10 min ([2]; aqueous buffer, thermodynamic from solid, buffer pH 7.2, 37 °C, read-out: Approximate Solubility): 333 to 500 mg/mL
solubility at 10 min ([2]; buffer pH 1, 37 °C, pH 1, thermodynamic from solid, read-out: Approximate Solubility): 333 to 500 mg/mL
solubility at 10 min ([2]; buffer pH 4, 37 °C, pH 4, aqueous buffer, thermodynamic from solid, read-out: Approximate Solubility): 333 to 500 mg/mL
solubility at 10 min ([2]; buffer pH 6.8, 37 °C, pH 6.8, aqueous buffer, thermodynamic from solid, read-out: Approximate Solubility): 333 to 500 mg/mL
solubility at 10 min ([2]; buffer, aqueous buffer, thermodynamic from solid, all pH values tested (pH 1, 4, 6.8 and 7.2), 37 °C, read-out: Solubility (estimated)): 333 to 500 mg/mL
Drying stability (form) ([3]; drying at 35-65 °C, up to 4 days): stable up to 40 °C for at least 4 days
XRPD ([3]; drying at 35 °C, 1 d): Pattern 2
XRPD ([3]; drying at 35 °C, 4 d): Pattern 2
XRPD ([3]; drying at 40 °C, 1 d): Pattern 2
XRPD ([3]; drying at 40 °C, 2 d): Pattern 2
XRPD ([3]; drying at 40 °C, 3 d): Pattern 2
XRPD ([3]; drying at 40 °C, 4 d): Pattern 2
XRPD ([3]; drying at 50 °C, 1 d): Pattern 2
XRPD ([3]; drying at 50 °C, 2 d): Pattern 2
XRPD ([3]; drying at 50 °C, 4 d): Pattern 1
XRPD ([3]; drying at 65 °C, 1 d): Pattern 2
XRPD ([3]; drying at 65 °C, 2 d): Pattern 1
Drying stability (form) ([3]; lab oven under −0.09 MPa): stable at below 40 °C
VT-DVS water loss in equivalents ([4]; 40 °C, from 10 to 0% RH): 0.8 equiv water
VT-DVS weight loss ([4]; 40 °C, from 10 to 0% RH): approx. 5.8 wt %
VT-DVS weight loss ([4]; 40 °C, from 10 to 0% RH, listed as CHP Hydrate, Pattern 2): 5.8 wt %
VT-DVS weight loss ([4]; 40 °C, from 10 to 0% RH, listed as CHP pattern 2): approximately 5.8 wt %
VT-DVS water loss in equivalents ([4]; 50 °C, from 20 to 0% RH): 0.8 equiv water
VT-DVS weight loss ([4]; 50 °C, from 20 to 0% RH): approximately 6.1 wt %
VT-DVS weight loss ([4]; 50 °C, from 20 to 0% RH, listed as CHP Hydrate, Pattern 2): 6.1 wt %
VT-DVS weight loss ([4]; 50 °C, from 20 to 0% RH, listed as CHP pattern 2): approx. 6.1 wt %
VT-DVS water loss in equivalents ([4]; 60 °C, from 20 to 0% RH): 1.0 equiv water
VT-DVS weight loss ([4]; 60 °C, from 20 to 0% RH): approximately 7 wt %
VT-DVS weight loss ([4]; 60 °C, from 20 to 0% RH, listed as CHP Hydrate, Pattern 2): 7 wt %
VT-DVS weight loss ([4]; 60 °C, from 20 to 0% RH, listed as CHP pattern 2): approx. 7 wt %
RH below which dehydration starts ([4]; VT-DVS at 40 °C): below 10 % RH
RH below which dehydration starts ([4]; VT-DVS at 50 °C): below 20 % RH
RH below which dehydration starts ([4]; VT-DVS at 60 °C): below 20 % RH
Post-VT-DVS XRPD form [4]: mixture of Patterns 1 and 2
XRPD form after storage ([5]; 7 days at 40 °C/75% RH): No change in form
XRPD form after storage ([5]; 7 days at 40 °C/75% RH, listed as pattern 2): remain as pattern 2
XRPD form after storage ([5]; 7 days at 40 °C/75% RH, listed as pattern 2 CHP): remained as pattern 2
XRPD form after storage ([5]; 7 days at 80 °C): convert to pattern 1
XRPD form after storage ([5]; 7 days at 80 °C, listed as pattern 2): dehydration from pattern 2 to pattern 1
XRPD form after storage ([5]; 7 days at 80 °C, listed as pattern 2 CHP): converted to pattern 1
XRPD form after storage ([5]; 7 days in ambient light): No change in form
XRPD form after storage ([5]; 7 days in ambient light, listed as pattern 2): remain as pattern 2
XRPD form after storage ([5]; 7 days in ambient light, listed as pattern 2 CHP): remained as pattern 2
Appearance ([6]; 40 ± 2° C./75 ± 5% RH, 1M): Off-white
Assay by HPLC ([6]; 40 ± 2° C./75 ± 5% RH, 1M): 103.2%
Chiral, HPLC: chiral impurity (D, D) optical isomer ([6]; 40 ± 2° C./75 ± 5% RH, 1M): (D, D):N, D
Chiral, HPLC: chiral impurity (D, L) optical isomer ([6]; 40 ± 2° C./75 ± 5% RH, 1M): (D, L):N, D
Chiral, HPLC: chiral impurity (L, D) optical isomer ([6]; 40 ± 2° C./75 ± 5% RH, 1M): (L, D):N, D
Chiral, HPLC: chiral purity ([6]; 40 ± 2° C./75 ± 5% RH, 1M): 100.0%
Impurities, HPLC: H-His-OH ([6]; 40 ± 2° C./75 ± 5% RH, 1M): 0.08%
Impurities, HPLC: each other individual impurity ([6]; 40 ± 2° C./75 ± 5% RH, 1M): individual < 0.05%
Water content (KF) ([6]; 40 ± 2° C./75 ± 5% RH, 1M): 7.2%
Appearance ([6]; 40 ± 2° C./75 ± 5% RH, 3M): Off-white
Assay by HPLC ([6]; 40 ± 2° C./75 ± 5% RH, 3M): 103.3%
Chiral, HPLC: chiral impurity (D, D) optical isomer ([6]; 40 ± 2° C./75 ± 5% RH, 3M): (D, D):N, D
Chiral, HPLC: chiral impurity (D, L) optical isomer ([6]; 40 ± 2° C./75 ± 5% RH, 3M): (D, L):N, D
Chiral, HPLC: chiral impurity (L, D) optical isomer ([6]; 40 ± 2° C./75 ± 5% RH, 3M): (L, D):N, D
Chiral, HPLC: chiral purity ([6]; 40 ± 2° C./75 ± 5% RH, 3M): 100.0%
Impurities, HPLC: H-His-OH ([6]; 40 ± 2° C./75 ± 5% RH, 3M): 0.07%
Impurities, HPLC: each other individual impurity ([6]; 40 ± 2° C./75 ± 5% RH, 3M): individual < 0.05%
Water content (KF) ([6]; 40 ± 2° C./75 ± 5% RH, 3M): 7.2%
Appearance ([6]; 40 ± 2° C./75 ± 5% RH, 6M): Off-white
Assay by HPLC ([6]; 40 ± 2° C./75 ± 5% RH, 6M): 102.4%
Chiral, HPLC: chiral impurity (D, D) optical isomer ([6]; 40 ± 2° C./75 ± 5% RH, 6M): (D, D):N, D
Chiral, HPLC: chiral impurity (D, L) optical isomer ([6]; 40 ± 2° C./75 ± 5% RH, 6M): (D, L):N, D
Chiral, HPLC: chiral impurity (L, D) optical isomer ([6]; 40 ± 2° C./75 ± 5% RH, 6M): (L, D):0.5%
Chiral, HPLC: chiral purity ([6]; 40 ± 2° C./75 ± 5% RH, 6M): 99.9%
Impurities, HPLC: C16081735-D-isomer ([6]; 40 ± 2° C./75 ± 5% RH, 6M): isomer: 0.05%
Impurities, HPLC: H-His-OH ([6]; 40 ± 2° C./75 ± 5% RH, 6M): 0.06%
Water content (KF) ([6]; 40 ± 2° C./75 ± 5% RH, 6M): 7.2%
XRPD ([6]; 40 ± 2° C./75 ± 5% RH, 6M): Conform to reference
Appearance ([6]; Initial (time zero)): Off-white
Assay by HPLC ([6]; Initial (time zero)): 103.4%
Chiral, HPLC: chiral impurity (D, D) optical isomer ([6]; Initial (time zero)): (D, D):N, D
Chiral, HPLC: chiral impurity (D, L) optical isomer ([6]; Initial (time zero)): (D, L):N, D
Chiral, HPLC: chiral impurity (L, D) optical isomer ([6]; Initial (time zero)): (L, D):N, D
Chiral, HPLC: chiral purity ([6]; Initial (time zero)): 100.0%
Impurities, HPLC: H-His-OH ([6]; Initial (time zero)): 0.07%
Impurities, HPLC: each other individual impurity ([6]; Initial (time zero)): individual < 0.03%
Water content (KF) ([6]; Initial (time zero)): 7.4%
XRPD ([6]; Initial (time zero)): Conform to reference
SMILES: O=C1N[C@@H](Cc2cnc[nH]2)C(=O)N2CCC[C@@H]12 [Pattern 2, Pyrrolo [1,2-a]pyrazine-1,4-dione, hexahydro-3-(1H-imidazol-5-ylmethyl)-, hydrate (1:1), (3S, 8aS)-]
Post-VT-DVS XRPD form ([4]; listed as CHP pattern 2): mixture of pattern 1 and pattern 2; also recorded: mixture of pattern 1 and 2
